# Data as given in patent US20240118281A1, “ANTICANCER COMPOUNDS AND USES THEREOF” (University of Florida Research Foundation, Incorporated, priority 2021, published 2024).
# How the values were obtained:
# Type in all cases: cell-based
# DR5 [1] = assay: Surface biotinylation; settings: MDA-MB-468 cells, 2.5 μM, 24 h, amine- or thiol-reactive probes, FIG. 6D
# Description: (§1) Cell surface proteins were labeled by incubation of cells with 1.6 mM Sulfo-NHS-SS-Biotin (Thermo Fisher Scientific, Waltham, MA) or 1.6 mM Biotin-dPEG3-Maleimide (MilliporeSigma, St. Louis, MO) in Phosphate-Buffered Saline (PBS), pH 8.0 for 30 minutes at 4° C. The cells were subsequently washed three times with PBS, and proteins were extracted in a buffer containing 1% Triton X-100 extraction buffer in the absence of reducing agents. Cell extracts were then incubated with Streptavidin-agarose beads (Thermo Fisher Scientific, Waltham, MA) for 2.5 h at 4° C. Following centrifugation, the supernatant containing non-biotinylated proteins (flow-through) was retained and boiled in 2×-SDS-Sample Buffer containing 1% 2-mercaptoethanol. Streptavidin-agarose beads bound to biotinylated proteins were washed four times with 0.1% Triton X-100 extraction buffer, followed by boiling in 2×-SDS-Sample Buffer containing 1% 2-mercaptoethanol. Samples were then analyzed by immunoblot or blotting with Streptavidin-Alkaline Phosphatase.
# DR4 = assay: Surface biotinylation; settings: MDA-MB-468 cells, 2.5 μM, 24 h, amine- or thiol-reactive probes, FIG. 6D
# Description: as §1
# DR5 [2] = assay: Disulfide bond-mediated oligomerization and levels, non-reducing immunoblot
# Description: The BT20, BT474, BT549, MCF7, MDA-MB-231, MDA-MB-436, MDA-MB-468, HCC1143, HCC1500, HCC1569, HCC1937, HCC1954, Hs578t, and T47D cells lines were purchased from American Type Culture Collection (ATCC) (Manassas, VA). The HCI-001 cell line was derived from an ER-/PR-/HER2- patient-derived xenograft originally isolated from a patient as described previously (DeRose Y S, et al. Nat Med 2011; 17: 1514-1520). The HCI-001/LVM2 model was derived from the HCI-001 cell line by performing two rounds of selection for liver metastasis, as described previously (Wang M, et al. Cell Death Discovery 2019; 5: 153). Cell lines were grown in Dulbecco's Modified Eagle's Medium (GE Healthcare Life Sciences, Logan, UT) containing 10% fetal bovine serum (10% FBS—DMEM) in a humidified incubator with 5% CO2 at 37° C. Cell lysates were prepared as described previously (Law B K, et al. Mol Cell Biol. 2002; 22: 8184-8198). Immunoblot analysis was performed utilizing the following antibodies purchased from Cell Signaling Technology (Beverly, MA) [Akt, #4691; P-Akt[T308], #13038; ATF4, #11815; CHOP, #2895; Cleaved Caspase 8, #9496; DR4, #42533; DR5, #8074; EGFR, #4267; GRP78, #3177; HER3, #4754; PARP, #9532; PDIA1, #3501; XBP1s, #12782], from Santa Cruz Biotechnology (Santa Cruz, CA) [Actin, sc-47778; AGR2/3, sc-376653; AGR3, sc-390940; ERO1-a, sc-100805; and ERp44, sc-393687], or from Rockland Immunochemicals, Inc. (Limerick, PA), Streptavidin-Alkaline Phosphatase conjugated (SA-AP), S000-05.
# (§2) To assess protein disulfide bond-mediated oligomerization, cells were treated with DDAs for 24 h in 10% FBS-DMEM. Cells were subsequently scraped directly into the media and pelleted by centrifugation. Cells were extracted directly into boiling 2×-SDS-Sample Buffer containing 100 mM NEM and boiled for 10 min. Samples were sonicated, followed by centrifugation for 20 min at room temperature. Samples were subsequently analyzed by SDS-PAGE and immunoblot.
# ERAP1 = ERAP1 secretion in A431 skin cancer cells, immunoblot; settings: 5 μM, 24 h
# ERp44 = molecular target: T1, ERp44 (Homo sapiens, UniProt Q9BS26); assay: ERp44 disulfide bonding with client proteins, non-reducing immunoblot; parameters: endogenous in cells; host or cells: MDA-MB-468; settings: MDA-MB-468 cells
# T1 sequence (Q9BS26 30-406): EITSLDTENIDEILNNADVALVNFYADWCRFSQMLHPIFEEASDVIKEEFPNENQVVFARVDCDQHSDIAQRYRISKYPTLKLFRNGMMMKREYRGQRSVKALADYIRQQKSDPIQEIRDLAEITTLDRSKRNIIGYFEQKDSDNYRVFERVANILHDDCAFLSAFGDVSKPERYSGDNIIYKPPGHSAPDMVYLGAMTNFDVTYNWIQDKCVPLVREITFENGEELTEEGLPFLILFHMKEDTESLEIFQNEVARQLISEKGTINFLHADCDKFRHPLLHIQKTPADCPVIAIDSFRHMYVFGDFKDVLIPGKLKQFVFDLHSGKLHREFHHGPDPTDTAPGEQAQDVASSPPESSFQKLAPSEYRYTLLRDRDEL
# Description: as §2
# MDA-MB-468 cells [3] = assay: 3H-Leucine protein synthesis assay; settings: 24 h, FIG. 9A
# Description: Protein synthesis assays utilizing ^3H-Leucine purchased from Perkin Elmer (Waltham, MA) were carried out as detailed previously (Law B K, et al. J Biol Chem 2000; 275: 10796-10801; Law B K, et al. J Biol Chem 2000; 275: 38261-38267).
# ERp44/DR5 complexes [4] = molecular target: T2, ERp44/DR5 complexes (Homo sapiens, UniProt Q9BS26); assay: ERp44 co-immunoprecipitation; settings: MDA-MB-468 cells inducibly expressing Δ81-178 DR5, 24 h, FIG. 7D
# T2 construct: endogenous in cells; host or cells: MDA-MB-468
# ERp44/DR5 complexes [5] = molecular target: T3, ERp44/DR5 complexes (Homo sapiens, UniProt Q9BS26); assay: ERp44 co-immunoprecipitation; settings: MDA-MB-468 cells inducibly expressing wild type DR5, 24 h, FIG. 7D
# T3 construct: endogenous in cells; host or cells: MDA-MB-468
# T3 sequence (O14763 56-440 partner, one chain of several): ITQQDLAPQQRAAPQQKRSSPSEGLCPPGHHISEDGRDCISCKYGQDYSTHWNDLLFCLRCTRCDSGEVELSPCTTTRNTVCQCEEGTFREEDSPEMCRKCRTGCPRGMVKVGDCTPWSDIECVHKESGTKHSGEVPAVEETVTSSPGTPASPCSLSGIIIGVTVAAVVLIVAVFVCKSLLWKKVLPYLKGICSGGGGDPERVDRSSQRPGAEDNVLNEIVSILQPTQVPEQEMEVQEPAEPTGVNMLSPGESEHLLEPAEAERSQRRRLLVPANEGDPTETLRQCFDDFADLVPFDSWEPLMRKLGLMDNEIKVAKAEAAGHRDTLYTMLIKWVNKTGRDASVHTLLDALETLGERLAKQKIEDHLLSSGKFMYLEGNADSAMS
# MDA-MB-468 cells [6] = assay: Cell viability (MTT) assay; settings: FIG. 1D
# Description: MTT (3-(4,5-dimethylthiazol-2-yl)-2,5-diphenyltetrazolium bromide) (Biomatik, Wilmington, DE) assays were performed by plating 7,500 cells/well in 10% FBS/DMEM in a 96-well plate, followed by incubation at 37° C. for 24 h. Cells were then treated with vehicle or increasing concentrations of tcyDTDO, dMtcyDTDO, or dFtcyDTDO and incubated at 37° C. for 72 h. Cell media was subsequently removed from each well and MTT assays were initiated by incubating cells with 0.5 mg/ml MTT in PBS for 3 h, followed by removal of the MTT solution and addition of 100 µL of DMSO to each well for 30 min. Absorbance of the MTT formazan product was subsequently measured at 570 and 690 (reference) nm in a plate reader.
# [7] = MDA-MB-468 cells, 24 h, compared with tcyDTDO, FIG. 1E left
structure (smiles),measurement,setting,value
"CO[C@H]1C[C@@H]2CS(=O)(=O)SC[C@H]2C[C@@H]1OC [dMtcyDTDO, dimethoxy-tcyDTDO]",Cell surface levels of DR5,DR5 [1],increased cell surface levels of DR4 and DR5
same,Cell surface levels of DR4,DR4,increased cell surface levels of DR4 and DR5
same,"Levels and oligomerization of DR5, densitometry","DR5 [2]; 0, 1.25, 2.5, 5 uM, FIG. 1F",increases the levels of both oligomeric and monomeric forms of DR5
same,Concentration at which oligomerization of DR5 was observed,"DR5 [2]; MDA-MB-468 cells, 24 h, FIG. 1E right",1.25 µM
same,DR4/5 oligomerization at the same concentration (DR5),DR5 [2]; [7],more DR4/5 oligomerization
same,DR5 levels at the same concentration,DR5 [2]; [7],higher DR5 levels
same,ERAP1 levels in the culture medium,ERAP1; FIG. 4F upper,dramatically increased
same,"ERAP1 secretion, statistical analysis","ERAP1; N=3, FIG. 4F lower",induced ERAP1 secretion in a statistically significant manner
same,Disulfide bonding of ERp44 with client proteins,"ERp44; 5 μM, 24 h, FIG. 3E",reduces disulfide bonding of ERp44 and PDIA1 with multiple proteins
same,Monomeric levels of ERp44,"ERp44; 5 μM, 24 h, FIG. 3E",minimal effect on monomeric levels
same,"ERp44 binding to client proteins, quantitation across four experiments",ERp44; FIG. 4D,decreased ERAP1 levels and ERp44 binding to client proteins in a statistically significant manner
same,Potency in protein synthesis assay relative to tcyDTDO,MDA-MB-468 cells [3],two-fold greater potency than tcyDTDO
same,ERp44 binding to DR5[Δ81-178] in treated cells,ERp44/DR5 complexes [4],barely detectable
same,ERp44 binding to wild type DR5 in treated cells,ERp44/DR5 complexes [5],wild type DR5 bound ERp44
same,Potency in cell viability assays relative to tcyDTDO,MDA-MB-468 cells [6],approximately two-fold greater potency than tcyDTDO
